Source: US9556109B1, “Triscationic amphiphile derivative compounds having a pendent alcohol group, compositions thereof, and methods for making same” (James Madison Innovations, Inc., priority 2015, dated 2017)
Values after ≈ are worked out from the molar mass of the structure shown.

Experiments:
[1] = tested on: B. subtilis (G+); format: cell-based; conditions: Experiment 2, Table 3
[2] = tested on: P. aeruginosa (G−); experiment: Minimum inhibitory concentration (MIC), P. aeruginosa; format: cell-based, Pseudomonas aeruginosa
[3] = tested on: S. aureus (G+); experiment: Minimum inhibitory concentration (MIC), S. aureus; format: cell-based, Staphylococcus aureus
[4] = tested on: S. agalactiae (G+); experiment: Minimum inhibitory concentration (MIC), S. agalactiae; format: cell-based, Streptococcus agalactiae; conditions: Experiment 2, Table 3
[5] = tested on: B. anthracis (G+); format: cell-based; conditions: Experiment 2, Table 3
[6] = tested on: E. coli (G−); experiment: Minimum inhibitory concentration (MIC), E. coli; format: cell-based, Escherichia coli
[7] = tested on: E. faecalis (G+); experiment: Minimum inhibitory concentration (MIC), E. faecalis; format: cell-based, Enterococcus faecalis; conditions: Experiment 2, Table 3
[8] = Isothermal titration calorimetry: critical aggregation concentration and degree of ionization; format: physicochemical; conditions: 37° C.; for CAC: ITC, pure water
Description: Isothermal titration calorimetry (ITC) was used to determine the critical aggregation concentration (CAC) and the degree of ionization at 37° C. associated with aggregate formation for each amphiphile for the M-E series, as shown in Table 1.
A Nano ITC was used to measure the heat change associated with the deaggregation of amphiphiles via power compensation. A concentrated aqueous solution of amphiphile (>>CAC) was titrated into a thermally controlled sample cell, initially containing pure water, in a series of discrete injections. Isothermal titration calorimetry was used to determine the critical aggregation concentration (CAC).
CAC and ΔHagg were determined using a Nano-ITC (TA-Instruments). Prior to each experiment the sample cell was washed with dH2O (300 mL), ethanol (100 mL), dH2O (300 mL) and nanopure water (200 mL). Next, 950 μL of nanopure water was added to the sample cell. A concentrated aqueous solution (>>CAC) of amphiphile was prepared and equilibrated at 37° C. A 250 μL syringe was filled with the aqueous solution, and loaded into the Nano ITC. Multiple single injections in aliquots of 5 μL were injected into the sample cell with time intervals varying from 300 s to 1400 s. Samples were continuously stirred (300 rpm) throughout the titration. The Nano-Analyze program (TA-Instruments) was used to analyze the data. CAC and ΔHagg values reported are the average of two or more repeat experiments for each amphiphile.

[9] = tested on: Pa1 (G−); experiment: Minimum inhibitory concentration (MIC), Pa1; conditions: Experiment 1, Table 2
[10] = tested on: Gram-positive bacteria; experiment: MIC, summary for Gram-positive bacteria; format: cell-based; conditions: text summary over tested strains
[11] = tested on: Pseudomonas aeruginosa biofilm; experiment: Crystal Violet Biofilm Disruption Assay; format: cell-based; conditions: for Max % disruption: over 250-2 μM
Description: A Crystal Violet Biofilm Disruption Assay was adapted from the techniques described in Bendouah, et al. 2006, Biofilm formation by Staphylococcus aureus and Pseudomonas aeruginosa is associated with an unfavorable evolution after surgery for chronic sinusitis and nasal polyposis, Otolaryngol. […] Bacteriol. 193 (20):5616-22. doi: 10.1128/JB.05534-11, which are incorporated by reference in their entirety. Applicants' adapted assay was performed as follows: • 1. Bacterial growth: […] (120 RPM in shaking incubator) for 24 hours • 2. Working stock: Overnight liquid culture diluted down to a bacterial concentration of approximately 5×10^6 CFU/mL in fresh LB • 3. Plate inoculation: Sterile 96-well microtiter plate inoculated with working stock: […] Plate covered with plastic cover, parafilm wrapped around edges; Incubate 24 hours at 37 degrees C. (stationary incubator) to establish biofilm • 4. Treatment: Row A and B: 100 μL sterile PBS (blank and negative control for disruption, respectively); […] Plate covered, wrapped with fresh parafilm, incubated at 37 degrees C. for 24 hours • 5. Staining and quantification: Plate rinsed twice with 1×PBS and allowed to dry; Wells stained with 100 μL 0.1% Crystal Violet dye for 15 minutes, excess rinsed off with gentle running dI water, allowed to dry; Stain dissolved in 100 μL 95% ethanol per well for 1 hour; Ethanol/CV solution transferred to fresh 96-well plate; Plate read at 570 nm on spectrophotometer plate reader; Values for rows C-H compared to row B (neg. control for disruption) to obtain % biofilm disruption at each concentration.

[12] = tested on: Pa2 (G−); experiment: Minimum inhibitory concentration (MIC), Pa2; conditions: Experiment 1, Table 2
[13] = tested on: Gram-negative bacteria; experiment: MIC, summary for Gram-negative bacteria; format: cell-based; conditions: text summary over tested strains
[14] = tested on: P. aeruginosa (G−); conditions: comparison values of known antibiotics; cited from earlier work

## CCCCCCCC[N+](C)(C)Cc1cc(C[N+](C)(C)CCO)cc(C[N+](C)(C)CCCCCCCC)c1.[Br-].[Br-].[Br-] [Compound 1]
[1]
  MIC B. subtilis (G+): 250 µM
[2]; Experiment 2, Table 3
  MIC P. aeruginosa (G−): >250 µM
[3]; Experiment 2, Table 3
  MIC S. aureus (G+): 250 µM
[4]
  MIC S. agalactiae (G+): 125 µM
[5]
  MIC B. anthracis (G+): 63 µM
[6]; Experiment 2, Table 3
  MIC E. coli (G−): >250 µM
[7]
  MIC E. faecalis (G+): 63 µM

## CCCCCCCCCC[N+](C)(C)Cc1cc(C[N+](C)(C)CCO)cc(C[N+](C)(C)CCCCCCCCCC)c1.[Br-].[Br-].[Br-] [Compound 2]
[8]
  Degree of Ionization: 0.24
  CAC: 9.5 mM
[1]
  MIC B. subtilis (G+): 16 µM
[2]; Experiment 2, Table 3
  MIC P. aeruginosa (G−): 250 µM
[3]; Experiment 2, Table 3
  MIC S. aureus (G+): 125 µM
[4]
  MIC S. agalactiae (G+): 4 µM
[5]
  MIC B. anthracis (G+): 4 µM
[6]; Experiment 2, Table 3
  MIC E. coli (G−): 125 µM
[7]
  MIC E. faecalis (G+): 4 µM

## CCCCCCCCCCCC[N+](C)(C)Cc1cc(C[N+](C)(C)CCO)cc(C[N+](C)(C)CCCCCCCCCCCC)c1.[Br-].[Br-].[Br-] [Compound 3]
[9]
  MIC Pa1 (G−): 8 µM
[8]
  Degree of Ionization: 0.20
  CAC: 1.9 mM
[1]
  MIC B. subtilis (G+): 4 µM
[2]; Experiment 1, Table 2
  MIC P. aeruginosa (G−): 8 µM
[2]; Experiment 2, Table 3
  MIC P. aeruginosa (G−): 8 µM
[10]
  MIC for Gram-positive bacteria: 4 µM
[11]
  Min conc. >50% disruption: 63 µM
  Max % disruption: 68%
[11]; 2 μM
  % disruption average: 0%
  % disruption trial 1: 0%
  % disruption trial 2: 0%
[11]; 4 μM
  % disruption average: 5.12%
  % disruption trial 1: 1.759%
  % disruption trial 2: 8.481%
[11]; 8 μM
  % disruption average: 13.44%
  % disruption trial 1: 24.06%
  % disruption trial 2: 2.817%
[11]; 16 μM
  % disruption average: 30.79%
  % disruption trial 1: 47.34%
  % disruption trial 2: 14.23%
[11]; 31 μM
  % disruption average: 46.0133%
  % disruption trial 1: 61.1%
  % disruption trial 2: 30.93%
[11]; 63 μM
  % disruption average: 68.14%
  % disruption trial 1: 72.05%
  % disruption trial 2: 64.22%
[11]; 125 μM
  % disruption average: 65.66%
  % disruption trial 1: 65.04%
  % disruption trial 2: 66.29%
[11]; 250 μM
  % disruption average: 66.48%
  % disruption trial 1: 67.34%
  % disruption trial 2: 65.61%
[3]; Experiment 1, Table 2
  MIC S. aureus (G+): 4 µM
[3]; Experiment 2, Table 3
  MIC S. aureus (G+): 4 µM
[4]
  MIC S. agalactiae (G+): 2 µM
[5]
  MIC B. anthracis (G+): 2 µM
[6]; Experiment 1, Table 2
  MIC E. coli (G−): 4 µM
[6]; Experiment 2, Table 3
  MIC E. coli (G−): 4 µM
[7]
  MIC E. faecalis (G+): 2 µM
[12]
  MIC Pa2 (G−): 8 µM
[13]
  MIC for Gram-negative bacteria: 4 to 8 µM

## CCCCCCCCCCCCCC[N+](C)(C)Cc1cc(C[N+](C)(C)CCO)cc(C[N+](C)(C)CCCCCCCCCCCCCC)c1.[Br-].[Br-].[Br-] [Compound 4]
[9]
  MIC Pa1 (G−): 250 µM
[8]
  Degree of Ionization: 0.18
  CAC: 0.47 mM
[1]
  MIC B. subtilis (G+): 8 µM
[2]; Experiment 1, Table 2
  MIC P. aeruginosa (G−): 125 µM
[2]; Experiment 2, Table 3
  MIC P. aeruginosa (G−): 125 µM
[3]; Experiment 1, Table 2
  MIC S. aureus (G+): 8 µM
[3]; Experiment 2, Table 3
  MIC S. aureus (G+): 8 µM
[4]
  MIC S. agalactiae (G+): 4 µM
[5]
  MIC B. anthracis (G+): 8 µM
[6]; Experiment 1, Table 2
  MIC E. coli (G−): 8 µM
[6]; Experiment 2, Table 3
  MIC E. coli (G−): 8 µM
[7]
  MIC E. faecalis (G+): 4 µM
[12]
  MIC Pa2 (G−): 250 µM

## CCCCCCCCCCCCCCCC[N+](C)(C)Cc1cc(C[N+](C)(C)CCO)cc(C[N+](C)(C)CCCCCCCCCCCCCCCC)c1.[Br-].[Br-].[Br-] [Compound 5]
[9]
  MIC Pa1 (G−): >250 µM
[8]
  Degree of Ionization: 0.15
  CAC: 0.12 mM
[1]
  MIC B. subtilis (G+): >250 µM
[2]; Experiment 1, Table 2
  MIC P. aeruginosa (G−): 125 µM
[2]; Experiment 2, Table 3
  MIC P. aeruginosa (G−): 125 µM
[3]; Experiment 1, Table 2
  MIC S. aureus (G+): 63 µM
[3]; Experiment 2, Table 3
  MIC S. aureus (G+): 63 µM
[4]
  MIC S. agalactiae (G+): >250 µM
[5]
  MIC B. anthracis (G+): >250 µM
[6]; Experiment 1, Table 2
  MIC E. coli (G−): 63 µM
[6]; Experiment 2, Table 3
  MIC E. coli (G−): 63 µM
[7]
  MIC E. faecalis (G+): 63 µM
[12]
  MIC Pa2 (G−): >250 µM

## NC[C@H]1O[C@H](O[C@H]2[C@H](O)[C@@H](O[C@H]3O[C@H](CO)[C@@H](O)[C@H](N)[C@H]3O)[C@H](N)C[C@@H]2N)[C@H](N)C[C@@H]1O [Tobramycin, reference compound]
[14]
  MIC against P. aeruginosa: 6.4 µM (≈ 2.99 µg/mL)
[11]
  Min conc. >50% disruption: 31 µM
  Max % disruption: 61%
[11]; 2 μM
  % disruption average: 6.808%
  % disruption trial 1: 0%
  % disruption trial 2: 13.62%
[11]; 4 μM
  % disruption average: 27.66%
  % disruption trial 1: 0%
  % disruption trial 2: 55.3151%
[11]; 8 μM
  % disruption average: 32.13%
  % disruption trial 1: 15.46%
  % disruption trial 2: 48.79%
[11]; 16 μM
  % disruption average: 13.9806%
  % disruption trial 1: 0%
  % disruption trial 2: 27.9612%
[11]; 31 μM
  % disruption average: 61.0098%
  % disruption trial 1: 51.89%
  % disruption trial 2: 70.13%
[11]; 63 μM
  % disruption average: 60.79%
  % disruption trial 1: 53.5149%
  % disruption trial 2: 68.07%
[11]; 125 μM
  % disruption average: 43.07%
  % disruption trial 1: 34.88%
  % disruption trial 2: 51.26%
[11]; 250 μM
  % disruption average: 3.803%
  % disruption trial 1: 0%
  % disruption trial 2: 7.607%

## CO/N=C(\C(=O)N[C@@H]1C(=O)N2C(C(=O)[O-])=C(C[N+]3(C)CCCC3)CS[C@H]12)c1csc(N)n1 [cefepime]
[14]
  MIC against P. aeruginosa: 12.5 µM (≈ 6.01 µg/mL)
